Common to all, as to type: cell-based
The nature of series [1]: Inhibition of PI3K/AKT signalling pathway in human MM121224 cells stably expressing H2B-mTurquoise, ERK-KTR-mScarlet and FoxO3a-KTR-mNeonGreen fluorophore assessed as AKT activity by high-content screening microscopic analysis.
The test system of series [2] is MM121224. The experiment in a line: Inhibition of PI3K/AKT signalling pathway in human MM121224 cells assessed as downregulation of AKT phosphorylation at Ser473 residue by immunostaining based analysis.
The nature of series [3]: Toxicity against human MM121224 cells at 50 to 200 uM by high-content screening microscopic analysis. The following applies: mm121224, 200 µM, dose 50-200 µM.
In series [4] the test system is MM121224. Put plainly: Inhibition of PI3K/AKT signalling pathway in human MM121224 cells stably expressing H2B-mTurquoise, ERK-KTR-mScarlet and FoxO3a-KTR-mNeonGreen fluorophore assessed as AKT activity at 25 uM by high-content screening microscopic analysis.

Structures are written as SMILES. Calls of active or inactive are those of the source. The rule behind the calls is not given here.

For orientation: IC50 means the concentration at which inhibition is half-maximal.

Take `C=C1C(=O)O[C@H]2[C@H]1[C@@H](OC(=O)C(C)CC)CC(=C)[C@]1(O)C[C@H]3O[C@@]3(C)[C@H]21` (stereo partly specified): the IC50 in series [1] was determined as 14.2 µM. Still for that read-out and setting: in the case of `C=C1C(=O)O[C@H]([C@@H]2C(=O)C=C[C@]2(C)O)[C@H]1CCC(C)=O` [SECOTANAPARTHOLIDE B] it was 22.5 µM; in that of `C=C1C(=O)O[C@@H]2[C@H]3C(C)=CC(=O)C3=C(C)C[C@H](OC(=O)/C(C)=C\C)[C@@H]12`, 9.8 µM. On to `C=C1C(=O)O[C@H]2[C@H]1[C@@H](OC(=O)C(C)CC)C=C(C)[C@]1(O)C[C@@H](O)[C@@](C)(O)[C@H]21` (stereo partly specified), for which, in series [1], the IC50 came to 24.6 µM. Same read-out and setting: under `C=C1C(=O)O[C@@H]2[C@H]3C(C)=CC(=O)C3=C(C)CC[C@@H]12` [DEHYDROLEUCODIN] stands 23.6 µM; under `C=C1C(=O)O[C@H]2[C@H]1[C@@H](OC(=O)CC(C)C)CC(C)=C1C[C@H]3O[C@@]3(C)[C@@H]12`, 16.9 µM. Turning to `C=C1C(=O)O[C@H]2[C@H]1CC[C@@](C)(O)[C@@]13C=C[C@](C)([C@H]4[C@H](CC(=O)OC)[C@H](C/C=C\CC)C(=O)[C@H]41)[C@H]23`, in series [1], the IC50 is 27.7 µM. Moreover, the inhibition result in the series with MM121224 [2] is “Active”. Take `C=C1C(=O)O[C@@H]2[C@@H]3[C@@]4(C=C[C@@]3(C)[C@@]3(C4)C(=O)O[C@@H]4[C@H]5C(C)=CC(=O)C5=C(C)C[C@H](OC(C)=O)[C@H]43)[C@](C)(O)CC[C@@H]12`: the IC50 in series [1] turned out to be 14.7 µM. The same measure, in the same setting: in the case of `C=C1C(=O)O[C@@H]2[C@H]3C(C)=CC(=O)C3=C(C)C[C@H](OC(=O)CC(C)C)[C@@H]12` it was 15.3 µM.

Regarding `C=C1C(=O)O[C@@H]2[C@H]3C(C)=CC(=O)C3=C(C)C[C@H](O)[C@@H]12`, in series [1], the half-maximal inhibitory concentration (IC50) was found to be 15.1 µM. Further, in the series on MM121224 [2], the inhibition entry is “Active”. In the case of `C=C1C(=O)O[C@H]2[C@H]1[C@@H](OC(=O)CC(C)C)CC(=C)[C@]1(O)C[C@H]3O[C@@]3(C)[C@H]21`, the concentration for half-maximal inhibition (IC50) in series [1] was found to be 14.2 µM. Regarding `C=C1C(=O)O[C@@H]2C3=C(C)C(=O)C[C@@H](O)[C@]3(C)CC[C@@H]12`, the 50% inhibitory concentration (IC50) in series [1] is 11.2 µM. Further, in the series with MM121224 [2], the inhibition entry was “Active”. The corresponding values for `C=C(C(=O)OC)[C@@H]1CC[C@]2(C)C(=C(C)C(=O)C[C@H]2O)[C@H]1O` are 22.1 µM and “Active”. On to `C=C1C(=O)O[C@H]2[C@H]1[C@@H](OC(=O)CC(C)C)C=C(C)[C@]1(O)C[C@@H](O)[C@@](C)(O)[C@H]21`, for which, in series [1], the IC50 was 27.9 µM. For `C=C1C(=O)O[C@H](C2=C(C)[C@H](OC(C)=O)CC2=O)[C@H]1CCC(C)=O`, in series [1], the IC50 turned out to be 25.1 µM. For the same molecule, in the series with MM121224 [2], the inhibition result is “Active”. For `C=C1C(=O)O[C@H]([C@H]2C(=O)C=C[C@@]2(C)O)[C@H]1CCC(C)=O`, the IC50 in series [1] was 38 µM.

`C=C1C(=O)O[C@@H]2[C@H]3C(C)=CC(=O)C3=C(C)C[C@H](OC(=O)C=C(C)C)[C@@H]12`: in series [1], the half-inhibitory concentration (IC50) was found to be 8.9 µM. Further, in series [3], the Activity entry is “Toxic”. Further, the inhibition result with MM121224 [4] and in the series with MM121224 [2] was “Active” in each case. Consider `C=C1C(=O)O[C@H]2[C@H]1[C@@H](OC(C)=O)CC(C)=C1C[C@H]3O[C@@]3(C)[C@@H]12`, for which the half-inhibitory concentration (IC50) in series [1] is 25.9 µM.

Consider `C=C1C(=O)O[C@@H]2[C@H]3C(C)=CC(=O)C3=C(C)C[C@H](OC(=O)C(C)CC)[C@@H]12` (stereo partly specified), for which the IC50 in series [1] amounted to 27.7 µM.

`C=C1C(=O)O[C@@H]2[C@@H]3[C@@]4(C=C[C@@]3(C)[C@]3(C4)C(=O)O[C@@H]4[C@H]5C(C)=CC(=O)C5=C(C)C[C@H](OC(C)=O)[C@H]43)[C@](C)(O)CC[C@@H]12`: the half-inhibitory concentration (IC50) in series [1] was determined as 35.7 µM. The inhibition entry with MM121224 [2] was “Active”. For `C=C1C(=O)O[C@H]2[C@H]1CC[C@@](C)(O)[C@@]13O[C@@H]1[C@@H]1O[C@]1(C)[C@H]23`, the half-inhibitory concentration (IC50) in series [1] worked out at 38.4 µM. On the same count and under the same terms, under `C=C1C(=O)O[C@H]2[C@H]1CC[C@@](C)(O)[C@]13C=C[C@@](C)([C@H]21)[C@@]1(C3)C(=O)C[C@]2(C(C)C)C[C@@H]21` stands 26.5 µM.

Turning to `C=C1C(=O)O[C@H]2[C@H]1[C@@H](OC(C)=O)C=C(C)[C@]1(O)C[C@H]3O[C@@]3(C)[C@H]21`, the IC50 in series [1] turned out to be 22.9 µM. Still for that read-out and setting: under `C=C1C(=O)O[C@@H]2[C@H]3C(C)=CC(=O)C3=C(C)C[C@H](OC(C)=O)[C@@H]12` stands 11 µM. Same read-out and setting: under `C=C1C(=O)O[C@@H]2[C@H]3C(C)=CC[C@@H](O)[C@]3(C)CC[C@@H]12` [SANTAMARIN] stands 52.7 µM; under `C=C1C(=O)O[C@H]2[C@H]1[C@@H](OC(C)=O)CC(=C)[C@]1(O)C[C@H]3O[C@@]3(C)[C@H]21`, 46.2 µM; under `C=C1C(=O)O[C@H]2[C@H]1CC[C@@](C)(O)[C@]13O[C@H]1[C@H]1O[C@@]1(C)[C@H]23` [ARTECANIN], 119 µM.

Source of the values: ChEMBL document CHEMBL5126665, “A Dimerosesquiterpene and Sesquiterpene Lactones from Artemisia argyi Inhibiting Oncogenic PI3K/AKT Signaling in Melanoma Cells” (J Nat Prod, 2022).
